# Experimental data taken from patent publication US9790218B2, “Small molecule activators of calcium-activated chloride channels and methods of use” (The Regents of the University of California, priority 2011, dated 2017).
# Read-outs that look alike come from different tables or passages of the source.
# Key:
# [1] = tested on: mouse ileal smooth muscle; assay: Intestinal smooth muscle contraction, ex vivo mouse ileal segments; details: Eact 10 μM, carbachol 1 μM following atropine
# Description: FIG. 8A-C. Intestinal smooth muscle contraction. FIG. 8A. Representative traces from mouse ileal segments showing effects of T16Ainh-A01 (10 μM), carbachol (CCh, 1 μM) and Eact (10 μM). FIG. 8B. Effect of CCh (1 μM) and Eact (10 μM) following atropine (1 μM). FIG. 8C. Summary of contraction frequency (left), and resting and maximum tone (right) (mean±S.E., n=4-7, * P<0.05).
# Wild type CD1 mice (age 8-10 weeks) were killed by avertin overdose (200 mg/kg). The ileum removed and washed with ice-cold HCO3^−-buffered solution. The ends of the ileal segments were tied with silk thread and connected to a force transducer. Beal segments were equilibrated for 60 min with a resting force of ˜1 mN, with changes of the bathing solution every 15 min. Tension was monitored continuously with a fixed-range precision force transducer (TSD, 125 C; Biopac, Goleta, Calif.) connected to a differential amplifier (DA 100B; Biopac). Data were recorded using MP100, Biopac digital acquisition system and analyzed using Acknowledge 3.5.7 software.
# TMEM16A in expressed in the interstitial cells of Cajal, the pacemaker cells that control smooth muscle contraction dynamics in stomach and intestine (Huang et al., supra; Gomez-Pinilla et al. (2009) Am. J. Physiol. Gastrointest. Liver Physiol. 296, G1370-1381). The effect of Eact on mouse ileal smooth muscle contraction was investigated using an ex vivo intestinal preparation. […] Without wishing to be bound by theory, the constitutive TMEM16A activity in this ex vivo preparation could obscure Eact activity. To reveal Eact effects, atropine was first added to inhibit basal contractions. […] FIG. 8C summarizes data on contraction frequency, resting tone and maximal tone.
# [2] = target: T1, TMEM16A (Homo sapiens, UniProt Q5XXA6, DEL476-501); assay: Fluorescence plate reader assay of TMEM16A-mediated I^− influx (YFP halide sensor); type: cell-based; details: for EC50 / EC50 (μM): fluorescence plate reader assay; for EC50: read-out: EC50; for TMEM16A conductance, F class SAR: synthesized F class analogs
# T1 construct: expressed in transfected cells
# T1 sequence (Q5XXA6 with tags, fused parts or gaps isoform Q5XXA6-5 DEL539-564): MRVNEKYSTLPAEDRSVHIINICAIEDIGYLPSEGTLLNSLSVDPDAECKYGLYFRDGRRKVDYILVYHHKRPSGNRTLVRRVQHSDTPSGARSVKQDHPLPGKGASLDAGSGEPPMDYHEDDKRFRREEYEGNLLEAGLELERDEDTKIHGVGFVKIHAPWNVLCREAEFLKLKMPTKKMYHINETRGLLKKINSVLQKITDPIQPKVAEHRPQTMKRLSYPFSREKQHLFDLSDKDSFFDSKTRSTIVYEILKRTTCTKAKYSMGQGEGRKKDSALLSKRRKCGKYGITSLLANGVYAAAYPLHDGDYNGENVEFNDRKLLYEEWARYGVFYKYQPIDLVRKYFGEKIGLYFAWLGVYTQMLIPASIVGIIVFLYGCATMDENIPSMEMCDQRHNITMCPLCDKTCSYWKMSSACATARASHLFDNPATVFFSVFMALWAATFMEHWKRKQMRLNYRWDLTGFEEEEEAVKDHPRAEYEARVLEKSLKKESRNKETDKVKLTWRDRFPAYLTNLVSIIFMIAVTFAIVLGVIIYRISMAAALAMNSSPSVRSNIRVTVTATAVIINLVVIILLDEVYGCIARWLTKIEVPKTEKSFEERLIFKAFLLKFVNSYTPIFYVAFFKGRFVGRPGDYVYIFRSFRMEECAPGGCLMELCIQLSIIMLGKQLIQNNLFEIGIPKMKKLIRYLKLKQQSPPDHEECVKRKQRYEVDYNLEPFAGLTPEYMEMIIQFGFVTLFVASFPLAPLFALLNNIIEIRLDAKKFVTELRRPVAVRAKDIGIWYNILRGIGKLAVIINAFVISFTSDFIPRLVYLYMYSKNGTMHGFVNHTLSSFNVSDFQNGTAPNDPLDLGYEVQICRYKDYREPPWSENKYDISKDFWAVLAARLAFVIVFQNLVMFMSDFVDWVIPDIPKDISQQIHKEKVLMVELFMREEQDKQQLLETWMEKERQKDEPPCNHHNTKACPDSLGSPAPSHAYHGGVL
# Description: (§1) FRT cells were stably transfected with human TMEM16A (TMEM16A(abc), cDNA provided by Dr. Luis Galietta, Gaslini Institute, Genoa, Italy) and the halide sensor YFP-H148Q/1152L/F46L. Cells were plated in 96-well black-walled microplates (Corning Inc., Corning, N.Y.) at a density of 20,000 cells per well in Coon's modified F12 medium supplemented with 5% fetal calf serum, 2 mM L-glutamine, 100 U/mL penicillin and 100 μg/mL streptomycin. The human submandibular cell line A253 (ATCC HTB 41) was cultured in complete McCoy's 5A medium supplemented with 10% fetal bovine serum, 100 U/mL penicillin and 100 μg/mL streptomycin.
# TMEM16A activators were identified from screening of ˜110,000 synthetic drug-like compounds, purified natural products and approved/investigational drugs. The cell-based screen employs FRT cells coexpressing human TMEM16A and the I^−-sensing yellow fluorescent protein YFP-H148Q/1152L/F46L. FRT cells were chosen because of their low basal I^− and Cl^− transport, rapid growth on uncoated plastic, strong stable expression of transfected proteins, and formation of tight junctions for measurements of transepithelial short-circuit current (Ma et al., supra).
# High-throughput screening was done using an automated screening platform (Beckman) equipped with FluoStar fluorescence plate readers (BMG Lab Technologies, Durham, N.C.) as described (Ma et al., supra). Each well of a 96-well plate was washed 3 times with PBS (200 μL/wash), leaving 50 μL PBS. Test compounds (0.5 μL) were added to each well at […]. After 10 min, 96-well plates were transferred to a plate reader for fluorescence assay. Each well was assayed individually for TMEM16A-mediated I^− influx by recording fluorescence continuously (400 ms per point) for 2 s (baseline), then 50 μL of a 140 mM I^− solution was added. The initial rate of I^− influx was computed from fluorescence data by non-linear regression.
# As diagrammed in FIG. 1A, test compounds at 25 μM final concentration were added 10 min prior to I^− addition. The 10 min incubation was chosen to allow for compound transport into cytoplasm and to minimize false positives from compounds that elevate cytoplasmic Ca^2+ transiently. Fluorescence from individual wells of 96-well plates was measured just prior to and for 6 s after I^− addition for computation of initial I^− influx rate.
# [3] = target: T1, TMEM16A; assay: Apical membrane current in TMEM16A-expressing FRT cells; type: cell-based; details: basolateral membrane permeabilized, Cl^− gradient; ATP 100 μM
# Description: as §1
# Snapwell inserts containing TMEM16A-expressing FRT, HBE, CF HBE or HTG cells were mounted in Ussing chambers (Physiologic Instruments, San Diego, Calif.). Amiloride, CFTRinh-172, UTP, ATP, T16Ainh-A01 and TMEM16A activators were added to the apical solution and an equal volume of vehicle was added at the same time to the basolateral solution. Symmetrical HCO3^−-buffered solutions were used for HBE, CF HBE and HTG cells. For FRT cells, the hemichambers were filled with a half-Cl^− solution (apical) and the HCO3^−-buffered solution (basolateral), and the basolateral membrane was permeabilized with 250 μg/mL amphotericin B, as described (Namkung et al. (2010), supra). Cells were bathed for a 10 min stabilization period and aerated with 95% O2/5% CO2 at 37° C. or room temperature. Apical membrane current (for FRT cells) and short-circuit current were measured using an EVC4000 Multi-Channel V/I Clamp (World Precision Instruments, Sarasota, Fla.) and recorded using PowerLab/8sp (AD Instruments, Castle Hill, Australia).
# The current increase was sustained for >10 min (FIG. 2B, inset). […] Data are also shown for a second Fact compound (Fact9, see Table 1) in FIG. 9.
compound,measurement,setting,value
CN1[C@@H]2CC[C@H]1C[C@@H](OC(=O)C(CO)c1ccccc1)C2 (stereo partly drawn) [atropine],contraction after atropine (1 μM),[1],prevented the carbachol effect
"CC(C)c1ccc(NC(=O)c2cccc(-n3cnnn3)c2)cc1 [Fact9, N-(4-isopropylphenyl)-3-(1H-tetrazol-1-yl)benzamide]",EC50,[2]; Fact analogs,11 µM
same,Cl^− current (apical membrane current),[3],stimulated TMEM16A Cl^− current
O=C(Nc1cccc(Br)c1)c1cccc(-n2cnnn2)c1 [3-bromophenyl],EC50 (μM),[2]; Fact analogs,inactive
O=C(Nc1ccc(Cl)cc1)c1cccc(-n2cnnn2)c1 [4-chlorophenyl],EC50 (μM),[2]; Fact analogs,inactive
same,"TMEM16A conductance, F class SAR",[2],low activity
"Nc1ncnc2c1ncn2[C@@H]1O[C@H](COP(=O)(O)OP(=O)(O)OP(=O)(O)O)[C@@H](O)[C@H]1O [ATP, reference compound]",Cl^− current (apical membrane current),[3],large but transient elevation in Cl^− current
O=C(Nc1ccc([N+](=O)[O-])cc1)c1cccc(-n2cnnn2)c1 [4-nitrophenyl],EC50 (μM),[2]; Fact analogs,inactive
same,"TMEM16A conductance, F class SAR",[2],low activity
"COc1ccc(CC(=O)N(Cc2ccncc2)c2nc(-c3ccccc3)cs2)c(OC)c1OC [(pyrid-4-yl)methyl / phenyl, N-(4-pyridylmethyl)-N-(4-phenyl-2-thiazolyl)-2,3,4-trimethoxybenzeneacetamide]",EC50,[2]; Eact analogs,2 µM
"CN(C)c1ccc(NC(=O)c2cccc(-n3cnnn3)c2)cc1 [4-(N,N-dimethylamino)phenyl]",EC50 (μM),[2]; Fact analogs,inactive
same,"TMEM16A conductance, F class SAR",[2],low activity
O=C(Nc1ccc(Br)c(C(F)(F)F)c1)c1cccc(-n2cnnn2)c1 [4-bromo-3-trifluoromethylphenyl],EC50,[2]; Fact analogs,55 µM
O=C(Nc1ccccc1Br)c1cccc(-n2cnnn2)c1 [2-bromophenyl],EC50 (μM),[2]; Fact analogs,inactive
COc1ccc(-c2csc(N(Cc3ccccc3)C(=O)c3cc(OC)c(OC)c(OC)c3)n2)cc1 [benzyl / 4-methoxyphenyl],EC50,[2]; Eact analogs,4 µM
